In ChEMBL document CHEMBL1201862, “PubChem BioAssay data set” (2004):
Values belong to the compound of their own block, whether it stands above or below them. Activity calls are given as the source filed them.

Columns and labels:
[1] = test system: HEK293; experiment: Fluorescence-based counterscreen for potentiators or agonists of NPY-Y2: cell-based high-throughput dose response assay to identify inhibitors of cyclic nucleotide gated ion channel (CNGC) activity. In this assay, the parental HEK293 cell line transfected with a cyclic-nucleotide gated ion channel (CNGC)-based cAMP sensor is used to measure inhibition of isoproterenol-induced CNGC activity by test compound.; format: functional; conditions: Homo sapiens
[2] = molecular target: T1, Neuropeptide Y receptor type 2 (Homo sapiens, UniProt P49146); experiment: Fluorescence-based cell-based high-throughput dose response assay for agonists of NPY-Y2. [Related pubchem assays: 1703 (Screening assay (CNGC inhibitors).), 1359 (Screening assay (NPY-Y2 potentiators or agonists).), 1304 (Screening assay (NPY-Y1 potentiators or agonists).), 1710 (Screening assay (NPY-Y2 agonists).), 1791 (Summary AID.)]; format: functional
T1 sequence (P49146 whole entry): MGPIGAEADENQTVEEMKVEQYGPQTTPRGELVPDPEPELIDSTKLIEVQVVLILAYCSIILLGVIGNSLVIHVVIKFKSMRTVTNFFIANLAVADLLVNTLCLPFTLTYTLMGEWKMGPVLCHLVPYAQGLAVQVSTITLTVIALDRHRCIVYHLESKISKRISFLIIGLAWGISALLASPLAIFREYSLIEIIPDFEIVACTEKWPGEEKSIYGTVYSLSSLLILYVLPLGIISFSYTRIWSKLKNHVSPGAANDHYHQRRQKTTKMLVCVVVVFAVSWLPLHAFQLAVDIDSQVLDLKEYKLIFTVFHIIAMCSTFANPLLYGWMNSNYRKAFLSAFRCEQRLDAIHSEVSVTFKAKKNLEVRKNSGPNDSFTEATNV

[3] = molecular target: T2, Neuropeptide Y receptor type 1 (Homo sapiens, UniProt P25929); experiment: Fluorescence-based counterscreen for agonists of NPY-Y2: cell-based high-throughput dose response assay for agonists of NPY-Y1.; format: functional
T2 sequence (P25929 whole entry): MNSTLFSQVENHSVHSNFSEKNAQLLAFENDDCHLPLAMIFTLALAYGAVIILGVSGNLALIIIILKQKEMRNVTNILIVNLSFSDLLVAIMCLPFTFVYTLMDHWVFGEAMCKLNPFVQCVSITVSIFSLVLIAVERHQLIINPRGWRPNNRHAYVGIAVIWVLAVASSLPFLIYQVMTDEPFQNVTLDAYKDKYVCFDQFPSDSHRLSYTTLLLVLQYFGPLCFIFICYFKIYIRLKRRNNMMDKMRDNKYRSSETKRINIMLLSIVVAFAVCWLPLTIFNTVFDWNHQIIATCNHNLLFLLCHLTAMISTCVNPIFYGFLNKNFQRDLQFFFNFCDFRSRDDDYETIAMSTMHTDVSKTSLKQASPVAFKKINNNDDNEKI

[4] = molecular target: T3, Neuropeptides B/W receptor type 1 (Homo sapiens, UniProt P48145); experiment: Fluorescence-based dose response cell-based high throughput screening assay to identify antagonists of the G-protein coupled receptor 7 (GPR7). [Related pubchem assays: 1952 (Screening assay (GPR7 antagonists).), 1880 (Summary AID.)]; format: functional
T3 sequence (P48145 whole entry): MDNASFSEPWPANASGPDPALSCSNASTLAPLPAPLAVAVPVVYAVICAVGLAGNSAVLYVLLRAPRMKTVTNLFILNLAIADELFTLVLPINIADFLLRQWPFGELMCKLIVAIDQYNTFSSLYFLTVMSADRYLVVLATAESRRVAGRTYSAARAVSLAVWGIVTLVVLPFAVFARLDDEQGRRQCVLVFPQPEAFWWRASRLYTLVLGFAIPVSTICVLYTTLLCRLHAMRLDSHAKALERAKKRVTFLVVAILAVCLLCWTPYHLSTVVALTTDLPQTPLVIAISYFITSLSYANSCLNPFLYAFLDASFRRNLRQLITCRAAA

[5] = molecular target: T4, Melanin-concentrating hormone receptor 1 (Homo sapiens, UniProt Q99705); experiment: Fluorescence-based counterscreen for antagonists of the G-protein coupled receptor 7 (GPR7): cell-based high throughput dose response assay to identify antagonists of the melanin-concentrating hormone receptor 1 (MCHR1).; format: functional
[6] = molecular target: T4, Melanin-concentrating hormone receptor 1; experiment: Late-stage fluorescence-based counterscreen for antagonists of the G-protein coupled receptor 7 (GPR7): cell-based dose response assay to identify antagonists of the melanin-concentrating hormone receptor 1 (MCHR1). [Related pubchem assays (depositor defined):AID1861, AID1880, AID1952, AID2148, AID2251, AID2257, AID485339]; format: functional
[7] = molecular target: G-protein coupled receptor 35 (Homo sapiens, UniProt Q9HC97); experiment: inhibition of zaprinast-stimulated GPR35 beta-arrestin translocation – imaging, U2OS, beta-arrestin-GFP, zaprinast agonist, primary screen (AID 2058); format: functional;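 further: antagonist potency meaning inhibition of agonist-induced arrestin redistribution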
[8] = molecular target: T2, Neuropeptide Y receptor type 1; format: functional
[9] = molecular target: T1, Neuropeptide Y receptor type 2; format: functional, cell-based
[10] = molecular target: Ras and Rab interactor 1/Tyrosine-protein kinase ABL1 (Homo sapiens, UniProt P00519+Q13671); format: functional;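 further: biochemical TR-FRET dose-response test measuring inhibition of binding between Rin1 and Abl proteins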
[11] = molecular target: Cytochrome P450 2D6 (Homo sapiens, UniProt P10635); experiment: qHTS Assay for Inhibitors and Substrates of Cytochrome P450 2D6. [Related pubchem assays: 410 ]; format: ADME; conditions: read-out: Potency
[12] = molecular target: T1, Neuropeptide Y receptor type 2; experiment: Fluorescence-based counterscreen for agonists of NPY-Y1: cell-based high-throughput dose response assay for agonists of NPY-Y2.; format: functional
[13] = test system: HEK293; experiment: Fluorescence-based counterscreen for potentiators or agonists of NPY-Y1: cell-based high-throughput dose response assay for inhibitors of cyclic nucleotide gated ion channel (CNGC) activity. In this assay, the parental HEK293 cell line transfected with a cyclic-nucleotide gated ion channel (CNGC)-based cAMP sensor is used to measure inhibition of isoproterenol-induced CNGC …; format: functional; conditions: Homo sapiens
[14] = molecular target: T2, Neuropeptide Y receptor type 1; experiment: Fluorescence-based dose response cell-based high-throughput screening assay for agonists of NPY-Y1. [Related pubchem assays: 1697 (Screening assay (NPY-Y1 agonists).), 1359 (Screening assay (NPY-Y2 potentiators or agonists).), 1304 (Screening assay (NPY-Y1 potentiators or agonists).), 1704 (Screening assay (CNGC inhibitors).), 1791 (Summary AID.)]; format: functional

T4 sequence (Q99705 whole entry): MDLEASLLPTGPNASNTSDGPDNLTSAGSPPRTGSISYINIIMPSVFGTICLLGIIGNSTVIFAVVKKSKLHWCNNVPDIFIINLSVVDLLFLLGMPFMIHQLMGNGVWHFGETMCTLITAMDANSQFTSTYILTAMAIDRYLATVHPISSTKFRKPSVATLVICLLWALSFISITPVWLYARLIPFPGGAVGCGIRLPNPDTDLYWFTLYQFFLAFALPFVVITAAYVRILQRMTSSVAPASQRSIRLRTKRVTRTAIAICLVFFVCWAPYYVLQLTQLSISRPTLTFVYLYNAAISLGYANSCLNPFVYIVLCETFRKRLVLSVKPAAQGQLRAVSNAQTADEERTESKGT
Chain of G-protein coupled receptor 35 (Q9HC97 whole entry): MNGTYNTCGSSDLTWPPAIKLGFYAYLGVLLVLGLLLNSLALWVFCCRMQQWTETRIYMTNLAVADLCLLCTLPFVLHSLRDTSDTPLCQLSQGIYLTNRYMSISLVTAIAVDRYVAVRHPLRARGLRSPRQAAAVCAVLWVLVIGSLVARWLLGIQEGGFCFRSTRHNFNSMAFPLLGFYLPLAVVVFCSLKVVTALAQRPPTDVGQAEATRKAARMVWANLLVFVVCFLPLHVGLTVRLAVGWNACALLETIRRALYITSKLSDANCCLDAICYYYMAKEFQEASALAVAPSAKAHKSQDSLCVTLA
Chain of Ras and Rab interactor 1/Tyrosine-protein kinase ABL1 (P00519 whole entry): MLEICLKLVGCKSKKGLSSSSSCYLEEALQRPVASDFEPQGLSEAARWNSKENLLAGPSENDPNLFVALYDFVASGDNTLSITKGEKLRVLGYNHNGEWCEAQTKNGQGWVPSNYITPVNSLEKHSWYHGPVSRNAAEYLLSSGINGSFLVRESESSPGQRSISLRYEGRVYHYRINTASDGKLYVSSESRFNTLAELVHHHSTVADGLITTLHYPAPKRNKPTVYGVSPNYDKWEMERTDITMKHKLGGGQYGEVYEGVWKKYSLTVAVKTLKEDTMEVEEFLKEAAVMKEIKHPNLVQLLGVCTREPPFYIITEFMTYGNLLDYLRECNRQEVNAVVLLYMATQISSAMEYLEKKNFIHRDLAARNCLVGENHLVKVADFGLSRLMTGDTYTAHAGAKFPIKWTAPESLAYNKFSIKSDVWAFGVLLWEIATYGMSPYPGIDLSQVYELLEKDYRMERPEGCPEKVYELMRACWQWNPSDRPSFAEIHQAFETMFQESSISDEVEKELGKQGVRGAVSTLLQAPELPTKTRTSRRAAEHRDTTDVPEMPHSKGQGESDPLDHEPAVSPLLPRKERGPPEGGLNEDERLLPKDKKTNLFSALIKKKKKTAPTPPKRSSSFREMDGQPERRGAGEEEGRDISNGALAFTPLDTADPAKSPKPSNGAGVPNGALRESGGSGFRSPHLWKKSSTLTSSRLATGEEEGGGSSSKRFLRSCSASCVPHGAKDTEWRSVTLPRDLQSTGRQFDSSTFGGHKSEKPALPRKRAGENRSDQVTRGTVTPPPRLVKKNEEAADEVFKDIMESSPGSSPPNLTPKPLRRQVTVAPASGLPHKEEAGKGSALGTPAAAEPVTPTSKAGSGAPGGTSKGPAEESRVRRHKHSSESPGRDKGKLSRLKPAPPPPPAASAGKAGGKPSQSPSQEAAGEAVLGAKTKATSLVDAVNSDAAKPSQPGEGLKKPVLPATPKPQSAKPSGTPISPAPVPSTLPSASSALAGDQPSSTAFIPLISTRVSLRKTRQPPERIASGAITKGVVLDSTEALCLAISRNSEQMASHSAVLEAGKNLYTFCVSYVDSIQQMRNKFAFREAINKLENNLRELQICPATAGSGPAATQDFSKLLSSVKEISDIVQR
Chain of Ras and Rab interactor 1/Tyrosine-protein kinase ABL1 (Q13671 whole entry): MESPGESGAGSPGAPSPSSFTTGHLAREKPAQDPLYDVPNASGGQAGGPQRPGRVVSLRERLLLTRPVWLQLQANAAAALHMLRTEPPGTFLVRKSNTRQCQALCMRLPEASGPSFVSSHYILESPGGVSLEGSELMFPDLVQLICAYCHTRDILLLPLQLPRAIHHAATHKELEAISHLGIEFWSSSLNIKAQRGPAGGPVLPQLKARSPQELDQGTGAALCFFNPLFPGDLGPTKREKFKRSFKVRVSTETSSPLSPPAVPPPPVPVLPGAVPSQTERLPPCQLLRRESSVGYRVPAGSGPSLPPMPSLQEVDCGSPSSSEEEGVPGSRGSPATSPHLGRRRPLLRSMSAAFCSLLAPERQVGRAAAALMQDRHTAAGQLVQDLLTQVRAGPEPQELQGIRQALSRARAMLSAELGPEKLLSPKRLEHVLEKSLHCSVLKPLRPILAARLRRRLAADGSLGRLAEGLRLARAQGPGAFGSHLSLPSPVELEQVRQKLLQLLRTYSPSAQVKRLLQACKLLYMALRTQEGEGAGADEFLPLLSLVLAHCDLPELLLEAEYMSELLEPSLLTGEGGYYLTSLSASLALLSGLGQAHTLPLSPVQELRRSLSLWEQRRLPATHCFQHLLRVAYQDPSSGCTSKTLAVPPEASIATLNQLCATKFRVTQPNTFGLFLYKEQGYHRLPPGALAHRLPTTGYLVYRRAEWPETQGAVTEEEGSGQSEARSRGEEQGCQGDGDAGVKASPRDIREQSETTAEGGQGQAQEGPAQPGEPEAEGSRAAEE
Chain of Cytochrome P450 2D6 (P10635 whole entry): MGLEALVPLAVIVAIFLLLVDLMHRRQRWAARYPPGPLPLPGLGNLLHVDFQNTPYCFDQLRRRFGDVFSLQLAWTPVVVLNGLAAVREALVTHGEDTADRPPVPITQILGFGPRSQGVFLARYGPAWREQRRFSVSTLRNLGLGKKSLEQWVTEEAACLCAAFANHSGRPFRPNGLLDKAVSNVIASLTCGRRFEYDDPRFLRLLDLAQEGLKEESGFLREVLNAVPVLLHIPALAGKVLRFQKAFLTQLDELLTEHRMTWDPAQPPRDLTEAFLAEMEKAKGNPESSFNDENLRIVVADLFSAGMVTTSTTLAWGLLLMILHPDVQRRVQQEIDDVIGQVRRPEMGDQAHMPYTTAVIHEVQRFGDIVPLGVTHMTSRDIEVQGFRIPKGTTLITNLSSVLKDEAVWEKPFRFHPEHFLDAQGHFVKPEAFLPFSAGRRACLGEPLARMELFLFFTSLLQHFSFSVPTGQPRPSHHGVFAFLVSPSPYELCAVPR

SMILES: COc1ccc(-n2nnnc2SCC(=O)NCCc2ccccc2)cc1OC
EC50 [1]: > 35.4 µM (not active) | EC50 [2]: > 35.4 µM (not active) | EC50 [3]: > 35.4 µM (not active)

SMILES: COc1ccc2c(c1O)-c1c(OC)c(OC)cc3c1[C@@H](C2)N(C)CC3
AC50 [11]: 15.8 µM (inconclusive)

SMILES: CC1CC(C)CN(CCCNC(=O)c2cc3c(O)nc4ccccc4c3n2C)C1 (centres undefined)
EC50 [12]: > 35.4 µM (not active) | IC50 [13]: 19.8 µM (not active) | EC50 [14]: > 35.4 µM (not active)

Second part, the compound after the results:

IC50 [4]: 2.94 µM (active) | IC50 [5]: 23.6 µM (not active) | IC50 [6]: 17 µM (inactive)
SMILES: COc1ccc(Oc2c(Cl)cnn(-c3ccc(C)cc3)c2=O)cc1

IC50 [7]: 1 µM (active)
SMILES: CCCCCOC(=O)c1ccc(NC(=O)c2cccc(NC(=O)c3ccccc3C(=O)O)c2)cc1

IC50 [8]: 7.63 µM (active) | IC50 [9]: 2.95 µM (active) | IC50 [10]: 3.46 µM (active)
SMILES: CCOC(=O)CCCCC(=O)c1[nH]c(O)nc1CSc1nnc2c3ccccc3n(C(C)C)c2n1
